Patent US10640507B2, “PBD antibacterial agents” (KING'S COLLEGE LONDON, priority 2015, dated 2020)
≈ marks a conversion by molar mass, not a printed value.

Columns and labels:
[1] = test system: EMRSA-16; test: General MIC protocol, Gram positive panel; type: cell-based
Description: (§1) General Minimum Inhibitory Concentration (MIC) Protocol
(§2) 1. Grow up cultures of bacterial strains to be tested overnight.
(§3) 2. Dilute down overnight cultures to concentration of 1×10^6 bacteria/ml (OD0.01) in Tryptic soy broth (TSB).
(§4) 3. Add 100 μl of TSB media to column 2-column 12 in 96 well plate (keeping column 1 clear).
(§5) 4. Make up compound to a concentration of 64 μg/ml in water (or alternatively to twice the chosen maximum concentration to be tested).
(§6) 5. Add 100 μl of antibiotic solution to the 1st and 2nd columns.
(§7) 6. Using a multichannel pipette take 100 μl from the 2nd column wells and pipette into 3rd column wells and repeat down the 96 well plate (remembering to include controls i.e. uninfected media and media with no antibiotic).
(§8) 7. To each well (except uninfected control row H) add 100 μl of bacterially infected media at a concentration of 1×10^6/ml.
(§9) 8. This dilutes down the concentration of the antibiotic by half (top dose is therefore 32 μg/ml in column 1) and also gives you a starting bacterial concentration of 5×10^5/ml.
(§10) 9. Wrap plate with parafilm to prevent evaporation.
(§11) 10. Leave at desired temperature (37° C. unless specified elsewhere) for 20 hours.
(§12) 11. Next day check plates for growth and measure optical density (i.e. absorbance) at a wavelength of 600 nm (OD600).
(§13) An example of such a plate is shown in FIG. 1 where column A represents wells that receive the top dose 100 μl; column B represents wells that receive the top dose 100 μl+100 μl TSB; and column C represents wells that receive 100 μl TSB. Row H which is marked by a box labelled D represents a blank where the cells receive no bacteria.

[2] = test system: EMRSA-15; test: General MIC protocol, Gram positive panel; type: cell-based
Description: as §1, §2, §3, §4, §5, §6, §7, §8, §9, §10, §11, §12, §13

[3] = test system: E. faecalis VRE NCTC 12201; test: General MIC protocol, Gram positive panel; type: cell-based
Description: as §1, §2, §3, §4, §5, §6, §7, §8, §9, §10, §11, §12, §13

[4] = test system: E. faecium VRE NCTC 12204; test: General MIC protocol, Gram positive panel; type: cell-based
Description: as §1, §2, §3, §4, §5, §6, §7, §8, §9, §10, §11, §12, §13

[5] = test system: E. faecalis VSE NCTC 775; test: General MIC protocol, Gram positive panel; type: cell-based; settings: Enterococcus faecalis, NCTC775; VSE 775
Description: as §1, §2, §3, §4, §5, §6, §7, §8, §9, §10, §11, §12, §13

[6] = test system: methicillin sensitive S. aureus ATTC 9144 (NCTC 6571); test: General MIC protocol, Gram positive panel; type: cell-based; settings: Staphylococcus aureus, MSSA / NCTC 6571; MSSA 9144
Description: as §1, §2, §3, §4, §5, §6, §7, §8, §9, §10, §11, §12, §13

[7] = test system: P. aeruginosa PA01; test: General MIC protocol, Gram negative; type: cell-based; settings: Pseudomonas aeruginosa, PA01, PA01
Description: as §1, §2, §3, §4, §5, §6, §7, §8, §9, §10, §11, §12, §13

[8] = test system: A. baumannii AYE; test: General MIC protocol, Gram negative; type: cell-based; settings: Acinetobacter baumannii
Description: as §1, §2, §3, §4, §5, §6, §7, §8, §9, §10, §11, §12, §13

[9] = test system: K. pneumonia M6; test: General MIC protocol, Gram negative; type: cell-based; settings: Klebsiella pneumoniae; KP-M6
Description: as §1, §2, §3, §4, §5, §6, §7, §8, §9, §10, §11, §12, §13

[10] = test system: P. aeruginosa NCTC 13437; test: General MIC protocol, Gram negative; type: cell-based; settings: Pseudomonas aeruginosa, NCTC13437
Description: as §1, §2, §3, §4, §5, §6, §7, §8, §9, §10, §11, §12, §13

[11] = test system: A. baumannii NCTC 17978; test: General MIC protocol, Gram negative; type: cell-based; settings: Acinetobacter baumannii, NCTC17978
Description: as §1, §2, §3, §4, §5, §6, §7, §8, §9, §10, §11, §12, §13

[12] = test system: K. pneumonia NCTC 13368; test: General MIC protocol, Gram negative; type: cell-based
Description: as §1, §2, §3, §4, §5, §6, §7, §8, §9, §10, §11, §12, §13

[13] = test system: WI38 (Healthy cell line); test: MTT cytotoxicity assay; type: cell-based; settings: Homo sapiens, WI-38; MTT; 24 h continuous exposure; highest concentration tested 20 μM; read-out: IC50 WI38 (Healthy cell line)
Description: (§14) Two immortalised human cell lines, HeLa and WI38 were used for cytotoxicity screening of the compounds. HeLa is a human cervical cancer cell line and WI38 is a normal healthy cell line. The cell lines were obtained from the American Type Culture Collection. The cell-lines were maintained in monolayer culture in 75 cm2 flasks (TPP, Switzerland) under a humidified 5% CO2 atmosphere at 37° C. The HeLa cell line was maintained in Dulbecco's Modified Eagles Media (DMEM; Invitrogen) supplemented with foetal bovine serum (10% v/v; Invitrogen), L-glutamine (2 mM; Invitrogen), non-essential amino acids (1×; Invitrogen) and Penicillin-Streptomycin (1% v/v, Invitrogen). For WI38, Eagle's Minimum Essential Medium, and Penicillin-Streptomycin (1% v/v, Invitrogen) and foetal bovine serum (10%, nvitrogen) was used. For passaging, cells were washed with phosphate buffered saline [PBS] (GIBCO 14040, Invitrogen, UK), incubated with trypsine (GIBCO 25300, Invitrogen, UK), and re-seeded into fresh medium. For seeding, cells were counted using a Neubauer haemocytometer (Assistant, Germany) by microscopy (Nikon, USA) on a non-adherent suspension of cells that were washed in PBS, trypsinised, centrifuged at 8° C. at 8000 rpm for 5 min and re-suspended in fresh medium.
(§15) The cells were grown in normal cell culture conditions at 37° C. under a 5% CO2 humidified atmosphere using appropriate medium. The cell count was adjusted to 10^5 cells/ml/ and 20,000 cells were added per well. The cells were incubated for 24 hours and 1 μl of the appropriate inhibitor concentrations were to the wells in triplicates. After 24 h of continuous exposure to each compound, the cytotoxicity was determined using the MIT (3-(4,5-Dimethylthiazol-2-yl)-2,5-diphenyltetrazolium bromide) (Lancaster Synthesis Ltd, UK) colorimetric assay. Absorbance was quantified by spectrophotometry at λ=570 nm (Envision Plate Reader, PerkinElmer, USA). IC50 values were calculated by a dose-response analysis using the Prism Graphpad Prism® software. The cytotoxicity results are shown below in Table 12.

[14] = test system: HeLa (Cervical cancer cell line); test: MTT cytotoxicity assay; type: cell-based; settings: Homo sapiens, MTT, 24 h continuous exposure, read-out: IC50 HeLa (Cervical cancer cell line)
Description: as §14, §15

[15] = test system: K. pneumonia NCTC 13438; test: General MIC protocol, Gram negative; type: cell-based; settings: K. pneumonia NCTC 13438
Description: as §1, §2, §3, §4, §5, §6, §7, §8, §9, §10, §11, §12, §13

[16] = test system: K. pneumonia NCTC 13439; test: General MIC protocol, Gram negative; type: cell-based; settings: K. pneumonia NCTC 13439
Description: as §1, §2, §3, §4, §5, §6, §7, §8, §9, §10, §11, §12, §13

[17] = test system: K. pneumonia MGH 78578; test: General MIC protocol, Gram negative; type: cell-based; settings: K. pneumonia MGH 78578
Description: as §1, §2, §3, §4, §5, §6, §7, §8, §9, §10, §11, §12, §13

[18] = test system: K. pneumonia KP16; test: General MIC protocol, Gram negative; type: cell-based; settings: K. pneumonia KP16
Description: as §1, §2, §3, §4, §5, §6, §7, §8, §9, §10, §11, §12, §13

[19] = test system: K. pneumonia NCTC 13443; test: General MIC protocol, Gram negative; type: cell-based; settings: K. pneumonia NCTC 13443
Description: as §1, §2, §3, §4, §5, §6, §7, §8, §9, §10, §11, §12, §13

[20] = test system: K. pneumonia NCTC 51851; test: General MIC protocol, Gram negative; type: cell-based; settings: K. pneumonia NCTC 51851
Description: as §1, §2, §3, §4, §5, §6, §7, §8, §9, §10, §11, §12, §13

[21] = test system: resistant mutants of KP 13438; test: MIC following resistance development; type: cell-based, Klebsiella; settings: KP 13438; following resistance development
Description: as §1, §2, §3, §4, §5, §6, §7, §8, §9, §10, §11, §12, §13
(§16) The MIC of PP-A418 and colistin against the strains used in the time kill analysis of Example 31 following resistance development were measured. The MIC was measured using the general MIC protocol given above. The results are given in Table 14 below where the MIC values of resistant mutants are shown in the brackets.

[22] = test system: resistant mutants of KP 13368; test: MIC following resistance development; type: cell-based, Klebsiella; settings: KP 13368; following resistance development
Description: as §1, §2, §3, §4, §5, §6, §7, §8, §9, §10, §11, §12, §13, §16

[23] = test system: resistant mutants of KP 16; test: MIC following resistance development; type: cell-based, Klebsiella; settings: KP 16; following resistance development
Description: as §1, §2, §3, §4, §5, §6, §7, §8, §9, §10, §11, §12, §13, §16

[24] = test system: Klebsiella KP 342; test: General MIC protocol, Gram negative; type: cell-based; settings: Klebsiella, KP342
Description: as §1, §2, §3, §4, §5, §6, §7, §8, §9, §10, §11, §12, §13
The minimum inhibitory concentration (MIC) was measured using the general MIC protocol given above.

Molecule: CCN(CC)C(=O)c1cc2cc(NC(=O)c3cc(NC(=O)CCCOc4cc5c(cc4OC)C(=O)N4CCC[C@H]4C=N5)cn3C)ccc2s1 [PP-B28]
- MIC [1]: 4 mg/L (≈ 5.84 µM)
- MIC [2]: 1 mg/L (≈ 1.46 µM)
- MIC [3]: 0.5 mg/L (≈ 0.73 µM)
- MIC [4]: 1 mg/L (≈ 1.46 µM)
- MIC [5]: 1 mg/L (≈ 1.46 µM)
- MIC [6]: 0.5 mg/L (≈ 0.73 µM)
- MIC [7]: 128 mg/L (≈ 187 µM)
- MIC [8]: 4 mg/L (≈ 5.84 µM)
- MIC [9]: 8 mg/L (≈ 11.7 µM)
- MIC [10]: 32 mg/L (≈ 46.7 µM)
- MIC [11]: 4 mg/L (≈ 5.84 µM)
- MIC ([12]; Klebsiella pneumoniae, NCTC13368): 64 mg/L (≈ 93.5 µM)
- IC50 [13]: > 20 µM
- IC50 [14]: > 20 µM

Molecule: colistin [reference compound]
- MIC [15]: 2 mg/L
- MIC [16]: 4 mg/L
- MIC [17]: 8 mg/L
- MIC [18]: 2 to 4 mg/L
- MIC ([18]; listed as Collistin): 1 mg/L
- MIC [19]: 2 mg/L
- MIC ([12]; KP NCTC 13368): 4 mg/L
- MIC [20]: 64 mg/L
- MIC of resistant mutants (in brackets) [21]: (64-128) μg/ml
- MIC of resistant mutants (in brackets) [22]: (32-64) μg/ml
- MIC of resistant mutants (in brackets) [23]: (64-128) μg/ml
- MIC [24]: 4 mg/L
